Measured values taken from patent US20200392107A1, “CYCLIC AMINE DERIVATIVE AND MEDICAL USE THEREOF” (Toray Industries, Inc., priority 2018, published 2020).

Experiments:
[1] = biological target: T1, RORγ-LBD (GST-fused ligand-binding domain of RORγ) / coactivator TRAP220/DRIP-2 (Homo sapiens, UniProt P51449); assay: Inhibitory effect on RORγ-coactivator binding (LanthaScreen TR-FRET RORγ Coactivator Assay); type: biochemical; details: at 33 μmol/L of the test compound; read-out: RORγ-coactivator binding inhibition rate (%)
T1 construct: purchased Invitrogen
T1 sequence (P51449 269-508 limits assumed): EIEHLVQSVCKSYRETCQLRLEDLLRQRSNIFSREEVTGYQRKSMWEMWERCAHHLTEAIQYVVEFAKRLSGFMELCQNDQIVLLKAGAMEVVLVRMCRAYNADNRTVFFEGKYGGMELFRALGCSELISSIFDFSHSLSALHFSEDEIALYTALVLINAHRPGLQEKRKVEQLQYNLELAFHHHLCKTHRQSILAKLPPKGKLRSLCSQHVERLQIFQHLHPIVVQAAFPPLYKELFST
Procedure: The inhibitory effect of the cyclic amine derivative (I) or a pharmacologically acceptable salt thereof on the binding between a ligand-binding domain of RORγ (hereinafter referred to as RORγ-LBD) and a coactivator was evaluated using Invitrogen's LanthaScreen™ TR-FRET Retinoid-Related Orphan Receptor (ROR) gamma Coactivator Assay kit utilizing time-resolved fluorescence energy transfer (TR-FRET).
A test compound was dissolved in DMSO and diluted with TR-FRET Coregulator Buffer D (Invitrogen) containing 5 mmol/L of DTT to have a final DMSO concentration of 1% before use. To each well of a 384-well black plate (Corning Inc.), 4 nmol/L of GST-fused RORγ-LBD (Invitrogen) diluted with the buffer mentioned above and the test compound were added. A well without addition of the test compound and without addition of GST-fused RORγ-LBD (background) and a well without addition of the test compound and with addition of GST-fused RORγ-LBD (control) were prepared. Next, 150 nmol/L of fluorescein-labeled TRAP220/DRIP-2 (Invitrogen) diluted with the buffer mentioned above and 32 nmol/L of terbium-labeled anti-GST antibody (Invitrogen) were added to each well. After incubating the plate at room temperature for 16 to 24 hours, the fluorescence at 495 nm and 520 nm when excited at 320 nm was measured for each well and the ratio (fluorescence value at 520 nm/fluorescence value at 495 nm) was calculated.
The fold change with addition of the test compound (ratio with addition of the test compound/ratio of the background), the fold change of the control (ratio of the control/ratio of the background), and the fold change of the background (ratio of the background/ratio of the background) were calculated, and then the inhibition rate of binding between RORγ-LBD and a coactivator (hereinafter referred to as RORγ-coactivator binding inhibition rate) (%) was calculated from Formula (1):
RORγ-coactivator binding inhibition rate (%)=(1−((Fold change with addition of the test compound)−(Fold change of the background))/((Fold change of the control)−(Fold change of the background)))×100 (1).

[2] = system: mouse alopecia areata model; assay: Mouse alopecia areata model; type: in vivo; details: 10 mg/kg orally once daily for 42 days, Day 49 to Day 90; C3H/HeJ mice
Procedure: The effect of the cyclic amine derivative (I) or a pharmacologically acceptable salt thereof in a mouse alopecia areata model was evaluated using increase in the hair loss score as an index of worsening of symptoms. The mouse alopecia areata model was prepared by a partially modified method by Wang et al. (Journal of Investigative Dermatology, 2015, vol. 135, p. 2530-2532).
Female C3H/HeJ mice (CLEA Japan, Inc.) with spontaneous hair loss in 70% or more of the body surface were used as donor mice. The donor mice were euthanized by cervical dislocation, and then the groin, axilla, and auricular lymph nodes were aseptically removed. […]
On Day 49, photographs of the back and the abdomen of the mice were taken under isoflurane anesthesia. The status of hair loss was evaluated by a partially modified method by Alli et al. (Journal of Immunology, 2012, vol. 188, p. 477-486). In other words, the ratio of the area of hair loss site to the body surface area was scored in accordance with the criteria mentioned in Table 4, and regarded as the hair loss score. Specifically, the hair loss score was determined based on the numerical value of the ratio calculated from Formula (4): […]
Grouping was performed using the mouse hair loss score calculated on Day 49 as an index (the hair loss score on Day 49 (mean±standard error): 3.6±0.66). […]

inhibition at 33 µM [1] [%] | Compound | increase in the hair loss score (Day 91) [2]
96.8 | CC(=O)N1CCCC[C@@H]1C(=O)Nc1cc(Cl)c2c(c1)CCN2C[C@H]1CC[C@H](C(F)(F)F)CC1 [Example 9, (R)-1-acetyl-N-(7-chloro-1-((trans-4-(trifluoromethyl)cyclo-hexyl)methyl)indolin-5-yl)piperidine-2-carboxamide] | 
96.9 | CC(=O)N1CCCC[C@@H]1C(=O)Nc1cc(Cl)c2c(c1)CCCN2Cc1ccc(C(F)(F)F)cc1 [Example 1, (R)-1-acetyl-N-(8-chloro-1-(4-(trifluoromethyl)benzyl)-1,2,3,4-tetrahydroquinolin-6-yl)piperidine-2-carboxamide] | 
96.7 | CC(=O)N1CCCC[C@@H]1C(=O)Nc1cc(Cl)c2c(c1)CCN2Cc1ccc(C(F)(F)F)cc1 [Example 4, (R)-1-acetyl-N-(7-chloro-1-(4-(trifluoromethyl)benzyl)indolin-5-yl)piperidine-2-carboxamide] | suppressed
